{
  "source": "patent US9835633B1",
  "about": "“Compositions and methods for identifying agents for treating apoE-related diseases” (The J. David Gladstone Institutes, priority 2015, dated 2017)",
  "data": [
    {"system": "NSE-apoE4 primary neurons", "assay": "apoE fragmentation in NSE-apoE4 primary neurons (western blot)", "format": "cell-based, mouse", "conditions": "NSE-apoE4 primary neurons treated with compound changing Golgi pH or calcium levels", "method": "To confirm that PCSK1 and PCSK2 actually contribute to neuronal cleavage of apoE observed in NSE-apoE4 primary neurons, NSE-apoE4 primary neurons were treated with lentivirus encoding either PCSK1 shRNA or PCSK2 shRNA to decrease the endogenous PCSK1 or PCSK2 levels.\nActivity of both PCSK1 and PCSK2 is pH and calcium dependent. The optimum pH for PCSK1 and PCSK2 was acidic (pH 6.0 for PCSK1, pH 5.0 for PCSK2). Their activities were enriched in Golgi/trans-Golgi in neurons, which have an acidic environment. Based on this knowledge, it was hypothesized that changing the Golgi pH or calcium levels in neurons would affect PCSK1/PCSK2 activity and further regulate apoE fragmentation. To test this idea, NSE-apoE4 primary neurons were treated with Bafilomycin A, a compound that can increase Golgi pH, or Thapsigargin/2-APB, which can affect the calcium concentration in different cellular compartments.\nPCSK1/PCSK2 generated similar apoE fragmentation patterns in N2A-apoE4 cells compared to NSE-apoE4 primary neurons. To determine whether PCSK1/PCSK2-generated apoE fragments are the same as those generated endogenously, lysates from N2A-apoE4 cells overexpressing either PCSK1 or PCSK2, lysates from NSE-apoE4 primary neurons, and the mixture of these two lysates, were tested. ApoE fragmentation was detected by western blot.", "values": [
      {"smiles": "NCCOB(c1ccccc1)c1ccccc1", "note": "[2-APB]", "apoE fragmentation after compound treatment": "decrease of apoE fragmentation"},
      {"smiles": "C/C=C(/C)C(=O)O[C@H]1C(C)=C2[C@H]([C@@H]1OC(=O)CCCCCCC)[C@@](C)(OC(C)=O)C[C@H](OC(=O)CCC)[C@@]1(O)[C@H]2OC(=O)[C@@]1(C)O", "note": "[Thapsigargin]", "apoE fragmentation after compound treatment": "decrease of apoE fragmentation"},
      {"smiles": "CO/C1=C\\C(C)=C\\[C@@H](C)[C@@H](O)[C@@H](C)C/C(C)=C/C=C/[C@H](OC)[C@@H]([C@@H](C)[C@@H](O)[C@H](C)[C@@]2(O)C[C@@H](O)[C@H](C)[C@@H](C(C)C)O2)OC1=O", "note": "[Bafilomycin A]", "apoE fragmentation after compound treatment": "decrease of apoE fragmentation"}
    ]}
  ]
}
